17 molecules from patent US8410094B2, “Amide compounds, their pharmaceutical compositions, their preparation method and their uses” (Shanghai Institute of Materia Medica, Chinese Academy of …, priority 2008, dated 2013) can be followed below.

The assay concerns the target T1, CCR5 (Homo sapiens, UniProt P51681).
T1 construct: expressed in transfected cells
Description: Inhibition of CCR5: [35S]GTPγS binding assays (filtration, SPA-WGA) and calcium influx assay, 10 nM RANTES, CHO-CCR5. Format: biochemical. Conditions: for IC50: inhibition of GTPγS binding induced by 10 nM RANTES, CHO-CCR5; for inhibition at 0.03 µM: compound at 30 nM, read-out: inhibition against CCR5 @30 nM; for inhibition at 0.03 µM / inhibition at 0.3 µM: 10 nM RANTES; for inhibition at 0.3 µM: compound at 300 nM, read-out: inhibition against CCR5 @300 nM. How it is done: CCR5 belongs to G-Protein-Coupled Receptor (GPCR) family. The developing technology of GPCR-based drugs have been well-developed, among them, the experimental techniques such as ligand-receptor binding assay, GTPγS binding assay and Ca^2+ flux assay have been widely used in drug-screening related to chemokine receptors. The inhibitory activities of the compounds according to the present invention against CCR5 are measured by three methods, i.e., [^35S]GTPγS filter binding assay, SPA-WGA-based [^35S]GTPγS binding assay and calcium influx assay. At the same time, the antiviral activities in cell of the compounds according to the present invention are evaluated by using two kinds HIV-1 subtypes: H4DA5 cell model and PBMC system virus replication model.
A. [^35S]GTPγS Binding Assay
After binding with an agonist, CCR5 experiences a conformation change such that CCR5 interacts with G protein so as to active the G protein. G protein is a tripolymer composed of α-subunit and βγ-subunit. Since the ability of α-subunit binding to GTP depends on the interaction of CCR5 with the agonist, the ability of an agonist for activating CCR5 can be reflected by determining the amount of GTP binding to α-subunit. In a GTPγS binding assay, a ^35S-labeled GTP analogue GTPγS, which can bind with an activated α-subunit without being hydrolyzed, is used to replace GTP in order for eliminating the defect that the amount of GTP binding to G protein can not exactly reflect the activation of CCR5 due to the hydrolysis of GTO by GTPase and for convenience of detection. So, α-subunit binds with GDP when CCR5 is not activated, and after the activation of CCR5, α-subunit binds with GTPγS such that GTPγS irreversible binds to α-subunit. Therefore, the amount of [^35S]-GTPγS binding to α-subunit could reflect the level of CCR5 activated by an agonist. The ability of the agonist for activating CCR5 will decrease when an antagonist is added.
Such experiment has been referred to as GTPγS filtration assay in which [^35S]-GTPγS bound with the free G protein could be separated by membrane filtration.
Alternatively, SPA (Scintillation Proximity Assay) technique can be used to detect the [^35S]-GTPγS bound to G protein, which is called SPA-WGA-based [35S]GTPγS binding assay. The principle of SPA technique is as follows. Sub-atomic particles released during the decay of radioactive atoms, for example β-ray (electron), can excite microspheres at a sufficiently close distance to emit light so as to be detected by a Scintillation Counter. In an aqueous solution, most of the energy of these rays is absorbed by the solvent, and the traveling distance of these rays is limited.
The activation of G protein by CCR5 is determined by the following experiments.
CHO (Chinese hamster ovary cell) permanent cell line expressing CCR5 (CHO-CCR5) (a cell line constructed by Shanghai Targetdrug Ltd.) was lysed with a lysis buffer (5 mM Tris-HCl, pH 7.5, 5 mM EDTA and 5 mM EGTA) and then centrifugated at 15,000×g for 10 min to obtain cell membrane. After the cell membrane was resuspended in a reaction buffer (5 mM Tris-HCl, pH 7.5, 5 mM MgCl2, 1 mM EGTA, 100 mM NaCl), the protein concentration was determined using Bioford Protein Assay Kit manufactured by Bio-Rad Laboratories Inc. Subsequently, GTPγS binding assay was performed in the reaction buffer, wherein the reaction system was 100 μL containing 10 μg membrane protein, 40 μM GDP and 0.5 nM [^35S]-GTPγS (1200 Ci/mmol). After the compound to be tested (the compound was first dissolved in DMSO and then diluted in gradient with the reaction buffer according to the specific situation, wherein the final concentration of DMSO was 1% (v/v) in the whole reaction system) was added and shaken to mix homogeneously, the reaction tube was incubated at 30° C. for 1 hour. After the reaction finished, the tube was placed on ice, and the reaction mixture was diluted with PBS to quench the reaction and filtered under reduced pressure with a GF/C filter membrane. […]
(In general: Binding of GTPγS marks nucleotide exchange on a G protein.)

T1 sequence (P51681 whole entry): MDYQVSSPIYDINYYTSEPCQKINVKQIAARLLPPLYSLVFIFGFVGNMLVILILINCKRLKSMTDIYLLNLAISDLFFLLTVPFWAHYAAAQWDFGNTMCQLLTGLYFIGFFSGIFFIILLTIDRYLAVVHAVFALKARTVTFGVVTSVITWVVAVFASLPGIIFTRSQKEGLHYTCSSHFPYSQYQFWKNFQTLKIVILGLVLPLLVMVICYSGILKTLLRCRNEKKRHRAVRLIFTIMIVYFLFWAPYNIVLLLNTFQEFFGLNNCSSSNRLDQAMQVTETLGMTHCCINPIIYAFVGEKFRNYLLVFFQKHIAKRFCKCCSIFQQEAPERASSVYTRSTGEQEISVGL

Turning to `CC(=O)N1CCC(C(=O)N(CCCN2[C@@H]3CC[C@H]2C[C@H](NC(=O)Cc2ccc([N+](=O)[O-])c4ccccc24)C3)c2ccc(C)c(Cl)c2)CC1` [Compound 7s, 1-acetyl-N-(3-chloro-4-methylphenyl)-N-(3-(3-exo-(2-(4-nitro-1-naphthyl)acetamido)-8-azabicyclo[3.2.1]oct-8-yl)propyl)-4-piperidinylcarboxamide], the IC50 (in general, the concentration that gives 50% inhibition) was found to be 3.34 nM.

As for `CC(=O)N1CCC(C(=O)N(CCCN2C3CCC2CC(NC(=O)c2cccnc2)C3)c2ccc(C)c(Cl)c2)CC1` (stereo not drawn) [Compound 7t, 1-acetyl-N-(3-chloro-4-methylphenyl)-N-(3-(3-exo-nicotinamido-8-azabicyclo[3.2.1]oct-8-yl)propyl)-4-piperidinylcarboxamide], the inhibition (in general, the drop in the measured response relative to a control, in per cent) at 0.03 µM came out at 3.36% and the inhibition at 0.3 µM was 15.6%.

`CC(=O)N1CCC(C(=O)N(CCCN2C3CCC2CC(NC(=O)c2ccc(C(F)(F)F)cc2)C3)c2ccc(C)c(Cl)c2)CC1` (stereo not drawn) [Compound 7u, 1-acetyl-N-(3-chloro-4-methylphenyl)-N-(3-(3-exo-p-trifluoromethylbenzoylamido-8-azabicyclo[3.2.1]oct-8-yl)propyl)-4-piperidinylcarboxamide]: the inhibition at 0.03 µM amounted to 26.5% and the inhibition at 0.3 µM was 96.3%.

Turning to `CC(=O)N1CCC(C(=O)N(CCCN2C3CCC2CC(NC(=O)CCc2cccnc2)C3)c2ccc(C)c(Cl)c2)CC1` (stereo not drawn) [Compound 7v, 1-acetyl-N-(3-chloro-4-methylphenyl)-N-(3-(3-exo-(3-(3-pyridyl)propionamido)-8-azabicyclo[3.2.1]oct-8-yl)propyl)-4-piperidinylcarboxamide], the inhibition at 0.03 µM is 17.5% and the inhibition at 0.3 µM was 76.7%.

Turning to `CC(=O)N1CCC(C(=O)N(CCCN2[C@@H]3CC[C@H]2C[C@H](NC(=O)COc2ccc4ccccc4c2)C3)c2ccc(C)c(Cl)c2)CC1` [Compound 7w, 1-acetyl-N-(3-chloro-4-methylphenyl)-N-(3-(3-exo-(2-(2-naphthoxy)acetamido)-8-azabicyclo[3.2.1]oct-8-yl)propyl)-4-piperidinylcarboxamide], the concentration for half-maximal inhibition (IC50) was 18.1 nM.

`CC(=O)N1CCC(C(=O)N(CCCN2[C@@H]3CC[C@H]2C[C@H](NC(=O)COc2ccc(Cl)cc2)C3)c2ccc(C)c(Cl)c2)CC1` [Compound 7x, 1-acetyl-N-(3-chloro-4-methylphenyl)-N-(3-(3-exo-(2-p-chlorophenoxy)acetamido-8-azabicyclo[3.2.1]oct-8-yl)propyl)-4-piperidinylcarboxamide]: the IC50 came out at 27.3 nM.

As to `CC(=O)N1CCC(C(=O)N(CCCN2[C@@H]3CC[C@H]2C[C@H](NC(=O)COc2ccc(Cl)cc2Cl)C3)c2ccc(C)c(Cl)c2)CC1` [Compound 7y, 1-acetyl-N-(3-chloro-4-methylphenyl)-N-(3-(3-exo-(2-(2,4-dichlorophenoxy)acetamido)-8-azabicyclo[3.2.1]oct-8-yl)propyl)-4-piperidinylcarboxamide], the IC50 turned out to be 24.6 nM.

Take `CNS(=O)(=O)c1ccc(CC(=O)N[C@@H]2C[C@H]3CC[C@@H](C2)N3CCCN(C(=O)C2CCN(C(C)=O)CC2)c2ccc(C)c(Cl)c2)cc1` [Compound 7z, 1-acetyl-N-(3-chloro-4-methylphenyl)-N-(3-(3-exo-(2-(4-(N-methylsulphonyl)phenyl)acetamido)-8-azabicyclo[3.2.1]oct-8-yl)propyl)-4-piperidinylcarboxamide]: the IC50 was 17.3 nM.

Take `CC(=O)N1CCC(C(=O)N(CCCN2[C@@H]3CC[C@H]2C[C@H](NS(C)(=O)=O)C3)c2ccc(C)c(Cl)c2)CC1` [Compound 9a, 1-acetyl-N-(3-chloro-4-methylphenyl)-N-(3-(3-exo-(methylsulfonyl amido)-8-azabicyclo[3.2.1]oct-8-yl)propyl)-4-piperidinylcarboxamide]: the IC50 was 20.1 nM.

Consider `CC(=O)N1CCC(C(=O)N(CCCN2[C@@H]3CC[C@H]2C[C@H](NS(=O)(=O)c2ccc([N+](=O)[O-])cc2)C3)c2ccc(C)c(Cl)c2)CC1` [Compound 9c, 1-acetyl-N-(3-chloro-4-methylphenyl)-N-(3-(3-exo-(4-nitrophenylsulfonylamido)-8-azabicyclo[3.2.1]oct-8-yl)propyl)-4-piperidinylcarboxamide], for which the IC50 was found to be 3.3 nM.

As to `CC(=O)N1CCC(C(=O)N(CCCN2[C@@H]3CC[C@H]2C[C@H](NS(=O)(=O)c2cccc([N+](=O)[O-])c2)C3)c2ccc(C)c(Cl)c2)CC1` [Compound 9d, 1-acetyl-N-(3-chloro-4-methylphenyl)-N-(3-(3-exo-(3-nitrophenylsulfamide)-8-azabicyclo[3.2.1]oct-8-yl)propyl)-4-piperidinylcarboxamide], the IC50 amounted to 2.59 nM.

`CC(=O)N1CCC(C(=O)N(CCCN2[C@@H]3CC[C@H]2C[C@H](NS(=O)(=O)Cc2ccccc2)C3)c2ccc(C)c(Cl)c2)CC1` [Compound 9e, 1-acetyl-N-(3-chloro-4-methylphenyl)-N-(3-(3-exo-(phenylmethylsulfonylamido)-8-azabicyclo[3.2.1]oct-8-yl)propyl)-4-piperidinylcarboxamide]: the IC50 was 7.4 nM.

Turning to `CC(=O)N1CCC(C(=O)N(CCCN2[C@@H]3CC[C@H]2C[C@H](NS(=O)(=O)c2cccs2)C3)c2ccc(C)c(Cl)c2)CC1` [Compound 9f, 1-acetyl-N-(3-chloro-4-methylphenyl)-N-(3-(3-exo-(thienyl-2-sulfonylamido)-8-azabicyclo[3.2.1]oct-8-yl)propyl)-4-piperidinylcarboxamide], the IC50 amounted to 2.53 nM.

As to `COc1ccc(NC(=O)NC2CC3CCC(C2)N3CCCN(C(=O)C2CCN(C(C)=O)CC2)c2ccc(C)c(Cl)c2)cc1` (stereo not drawn) [Compound 10a, 1-acetyl-N-(3-chloro-4-methylphenyl)-N-(3-(3-exo-(3-(4-methoxylphenyl)ureylene)-8-azabicyclo[3.2.1]oct-8-yl)propyl)-4-piperidinylcarboxamide], the “inhibition against CCR5 (class symbol in IC50 column)” value (class by inhibition at 30 nM or 300 nM) is given as “++ (the compound at 300 nM has an inhibition against CCR5 of more thant 50% at 300 nM)”.

Consider `CC(=O)N1CCC(C(=O)N(CCCN2C3CCC2CC(NC(=O)Nc2ccc(Cl)c(C(F)(F)F)c2)C3)c2ccc(C)c(Cl)c2)CC1` (stereo not shown) [Compound 10b, 1-acetyl-N-(3-(3-(3-(4-chloro-3-(trifluoromethyl)phenyl)ureylene)-8-azabicyclo[3.2.1]oct-8-yl)propyl)-N-(3-chloro-4-methylphenyl)-4-piperidinylcarboxamide], for which the IC50 amounted to 28.7 nM.

As to `CC(=O)N1CCC(C(=O)N(CCCN2C3CCC2CC(NC(=O)Nc2ccccc2)C3)c2ccc(C)c(Cl)c2)CC1` (stereo not shown) [Compound 10c, 1-acetyl-N-(3-(3-(3-phenylureylene)-8-azabicyclo[3.2.1]oct-8-yl)propyl)-N-(3-chloro-4-methylphenyl)-4-piperidinylcarboxamide], the inhibition at 0.03 µM turned out to be 33.5% and the inhibition at 0.3 µM worked out at 41.9%.

For `CC(=O)N1CCC(C(=O)N(CCCN2C3CCC2CC(n2c(C)nnc2C(C)C)C3)c2ccc(C)c(Cl)c2)CC1` (stereo not drawn) [Compound 11, 1-acetyl-N-(3-chloro-4-methylphenyl)-N-(3-(3-exo-(3-isopropyl-5-methyl-4-hydro-1,2,4-triazol-4-yl)-8-azabicyclo[3.2.1]oct-8-yl)propyl)-4-piperidinylcarboxamide], the inhibition at 0.03 µM worked out at 48.8% and the inhibition at 0.3 µM came out at 98.4%.
